Test results: patent publication US20060041019A1, “Inhibitor of anticancer drug side effect” (priority 2002, published 2006)

Experiments:
Type in all cases: in vivo
[1] = test system: Male mouse models (CBA/J) of spontaneous alveolar epithelial hyperplasia; test: Hair loss as side effect of adriamycin, Test Example 1; conditions: ADM 0.1 mg/kg i.p., eight courses
Description: (§1) Male mouse models (CBA/J) of spontaneous alveolar epithelial hyperplasia were employed as test animals. These mice develop alveolar epithelial hyperplasia 12 to 15 weeks after birth. Accordingly, they were raised with normal feeds until 19 weeks after birth. […] CPL was mixed with powder feeds (CE-2). The daily dosage of adriamycin (ADM) was 0.1 mg/kg per mouse, and administration was made intraperitoneally once a day for three consecutive days, followed by drug withdrawal for 11 days. This procedure was designated as constituting a single course, and eight courses thereof were conducted.
(§2) At the time of ADM administration, the body weights of mice were measured and their general conditions were observed. In particular, the occurrence of hair loss was carefully observed. The mice were subjected to autopsy 36 weeks or 37 weeks after birth (with an administration duration of 17 weeks or 18 weeks), and samples were recovered. Tissue blocks were obtained from 3 sites each of the extirpated right and left lungs (6 sites in total), the recovered tissue fragments were fixed, fragments embedded in hydrophilic methacrylate resins were subjected to H-E staining, and the ranges of alveolar epithelial hyperplasia were compared.

[2] = test system: alveolar epithelial hyperplasia in male mouse models (CBA/J); test: Inhibition of alveolar epithelial hyperplasia, Test Example 1
Description: as §1
as §2, with “compared. […]” for “compared.”

[3] = test system: Mouse models of spontaneous cancer (CBA/J); test: Hair loss and whisker loss as side effect of adriamycin, Test Example 4; conditions: ADM 0.2 mg/kg i.p. in courses; CPL 0.01% in feed; n = 10 (ADM), 9 (ADM and CPL), 10 (CPL)
Excerpt: Based on the results attained in Test Examples 2 and 3, hair loss and whisker loss were observed under overcrowded conditions or in the presence of a dominant male. […] Accordingly, only the cage in which the dominant male was not present among the group that had been raised under normal conditions was selected, and the effects of CPL for alleviating side effects of an antitumor agent were examined.
Thereafter, they were divided into: the group to which an antitumor agent (adriamycin, ADM) had been administered; the group to which CPL-containing feeds had been administered; and the group to which ADM had been administered in combination with CPL, and these groups of mice were raised. The daily dosage of ADM was 0.2 mg/kg per mouse, and administration was made intraperitoneally once a day for 3 consecutive days, followed by drug withdrawal for 11 days. This procedure was designated as constituting a single course and then continued. CPL was mixed with feeds (CE-2) in amounts of 0.01% thereof.

[4] = CPL 0.01% in feed, group sizes n = 7 (CPL), 8 (CPL and ADM), 10 (ADM)

## COc1cccc2c1C(=O)c1c(O)c3c(c(O)c1C2=O)C[C@@](O)(C(=O)CO)C[C@@H]3O[C@H]1C[C@H](N)[C@H](O)[C@H](C)O1 [ADM, adriamycin]
[1]; 9 out of 10 cases
  Individuals with hair loss around the eyeballs and the skin of the upper lips: 90%
[1]; [4]
  Number of individuals undergoing hair loss around the eyeballs: 9
  Number of individuals undergoing hair loss at the upper lip: 9
[2]; FIG. 9, as in the group that did not experience administration
  Individuals in which sections with rates of hyperplasia development of 50% or more were observed: all individuals
[2]; lung tissue sections, 6 sites per individual, autopsy 36 or 37 weeks after birth, FIG. 8
  Sections with rates of hyperplasia development of less than 10%, share of the whole: 8.3%
[3]
  Hair loss and whisker loss (number of individuals): 4
